Laboratory results taken from PubChem BioAssay (NCI).
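1) Cells in 96-well plates. 2) Compound, 48 h, 5 concentrations. 3) Linear interpolation between surrounding doses. 4) Unreached endpoint = highest concentration. TGI: concentration producing complete growth inhibition.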

What follows are compounds tested on NCI-H460 lung (assay: inhibition of tumour cell growth, NCI panel, 48 h).

Row | Structure (SMILES) | TGI [µM]
1 | CC1(C)COC(c2ccccc2-c2ccccc2)=N1 | > 100

What follows are compounds tested on SF-539 CNS (assay: inhibition of tumour cell growth, NCI panel, 48 h).

Row | Structure (SMILES) | TGI [µM]
2 | Nc1cnc(Nc2cccc3ccccc23)o1 | > 10
3 | COC(=O)C1=CC(=O)OC1(OO)c1ccc(Br)cc1 (configuration not stated) | > 100
4 | C[Si](C)(C)CNC(=O)OCc1ccccc1 | > 100
5 | COc1cccc(-c2nc(-c3cnccn3)n(C3OC(CO)C(O)C3O)n2)c1 (configuration not stated) | > 100
6 | CC1(C)COC(c2ccccc2-c2ccccc2)=N1 | > 100

These compounds were tested on T-47D breast (assay: inhibition of tumour cell growth, NCI panel, 48 h).

Row | Structure (SMILES) | TGI [µM]
7 | Nc1cnc(Nc2cccc3ccccc23)o1 | > 10
8 | COC(=O)C1=CC(=O)OC1(OO)c1ccc(Br)cc1 (configuration not stated) | > 100
9 | C[Si](C)(C)CNC(=O)OCc1ccccc1 | 72.4
10 | COc1cccc(-c2nc(-c3cnccn3)n(C3OC(CO)C(O)C3O)n2)c1 (configuration not stated) | > 100
11 | CC1(C)COC(c2ccccc2-c2ccccc2)=N1 | > 100

What follows are compounds tested on SF-295 CNS (assay: inhibition of tumour cell growth, NCI panel, 48 h).

Row | Structure (SMILES) | TGI [µM]
12 | Nc1cnc(Nc2cccc3ccccc23)o1 | > 10
13 | COC(=O)C1=CC(=O)OC1(OO)c1ccc(Br)cc1 (configuration not stated) | > 100
14 | C[Si](C)(C)CNC(=O)OCc1ccccc1 | > 100
15 | COc1cccc(-c2nc(-c3cnccn3)n(C3OC(CO)C(O)C3O)n2)c1 (configuration not stated) | > 100
16 | CC1(C)COC(c2ccccc2-c2ccccc2)=N1 | > 100

What follows are compounds tested on UACC-62 melanoma (assay: inhibition of tumour cell growth, NCI panel, 48 h).

Row | Structure (SMILES) | TGI [µM]
17 | Nc1cnc(Nc2cccc3ccccc23)o1 | > 10
18 | COC(=O)C1=CC(=O)OC1(OO)c1ccc(Br)cc1 (configuration not stated) | > 100
19 | C[Si](C)(C)CNC(=O)OCc1ccccc1 | > 100
20 | COc1cccc(-c2nc(-c3cnccn3)n(C3OC(CO)C(O)C3O)n2)c1 (configuration not stated) | > 100
21 | CC1(C)COC(c2ccccc2-c2ccccc2)=N1 | > 100

These compounds were tested on TK-10 renal (assay: inhibition of tumour cell growth, NCI panel, 48 h).

Row | Structure (SMILES) | TGI [µM]
22 | Nc1cnc(Nc2cccc3ccccc23)o1 | > 10
23 | COC(=O)C1=CC(=O)OC1(OO)c1ccc(Br)cc1 (configuration not stated) | > 100
24 | C[Si](C)(C)CNC(=O)OCc1ccccc1 | > 100
25 | COc1cccc(-c2nc(-c3cnccn3)n(C3OC(CO)C(O)C3O)n2)c1 (configuration not stated) | > 100

These compounds were tested on OVCAR-3 ovarian (assay: inhibition of tumour cell growth, NCI panel, 48 h).

Row | Structure (SMILES) | TGI [µM]
26 | Nc1cnc(Nc2cccc3ccccc23)o1 | > 10
27 | COC(=O)C1=CC(=O)OC1(OO)c1ccc(Br)cc1 (configuration not stated) | > 100
28 | C[Si](C)(C)CNC(=O)OCc1ccccc1 | > 100
29 | COc1cccc(-c2nc(-c3cnccn3)n(C3OC(CO)C(O)C3O)n2)c1 (configuration not stated) | > 100
30 | CC1(C)COC(c2ccccc2-c2ccccc2)=N1 | > 100

These compounds were tested on MCF7 breast (assay: inhibition of tumour cell growth, NCI panel, 48 h).

Row | Structure (SMILES) | TGI [µM]
31 | Nc1cnc(Nc2cccc3ccccc23)o1 | > 10
32 | COC(=O)C1=CC(=O)OC1(OO)c1ccc(Br)cc1 (configuration not stated) | > 100
33 | C[Si](C)(C)CNC(=O)OCc1ccccc1 | > 100
34 | COc1cccc(-c2nc(-c3cnccn3)n(C3OC(CO)C(O)C3O)n2)c1 (configuration not stated) | > 100
35 | CC1(C)COC(c2ccccc2-c2ccccc2)=N1 | > 100

Each compound was assayed on IGROV1 ovarian (assay: inhibition of tumour cell growth, NCI panel, 48 h).

Row | Structure (SMILES) | TGI [µM]
36 | Nc1cnc(Nc2cccc3ccccc23)o1 | > 10
37 | COC(=O)C1=CC(=O)OC1(OO)c1ccc(Br)cc1 (configuration not stated) | > 100
38 | C[Si](C)(C)CNC(=O)OCc1ccccc1 | > 100
39 | COc1cccc(-c2nc(-c3cnccn3)n(C3OC(CO)C(O)C3O)n2)c1 (configuration not stated) | > 100
40 | CC1(C)COC(c2ccccc2-c2ccccc2)=N1 | > 100

Each compound was assayed on SR leukemia (assay: inhibition of tumour cell growth, NCI panel, 48 h).

Row | Structure (SMILES) | TGI [µM]
41 | COC(=O)C1=CC(=O)OC1(OO)c1ccc(Br)cc1 (configuration not stated) | > 100
42 | C[Si](C)(C)CNC(=O)OCc1ccccc1 | > 100
43 | COc1cccc(-c2nc(-c3cnccn3)n(C3OC(CO)C(O)C3O)n2)c1 (configuration not stated) | > 100
44 | CC1(C)COC(c2ccccc2-c2ccccc2)=N1 | > 100

What follows are compounds tested on HOP-92 NSCLC (assay: inhibition of tumour cell growth, NCI panel, 48 h).

Row | Structure (SMILES) | TGI [µM]
45 | COC(=O)C1=CC(=O)OC1(OO)c1ccc(Br)cc1 (configuration not stated) | > 100
46 | C[Si](C)(C)CNC(=O)OCc1ccccc1 | > 100
47 | COc1cccc(-c2nc(-c3cnccn3)n(C3OC(CO)C(O)C3O)n2)c1 (configuration not stated) | > 100
48 | CC1(C)COC(c2ccccc2-c2ccccc2)=N1 | > 100

What follows are compounds tested on SNB-75 CNS (assay: inhibition of tumour cell growth, NCI panel, 48 h).

Row | Structure (SMILES) | TGI [µM]
49 | Nc1cnc(Nc2cccc3ccccc23)o1 | > 10
50 | COC(=O)C1=CC(=O)OC1(OO)c1ccc(Br)cc1 (configuration not stated) | > 100
51 | C[Si](C)(C)CNC(=O)OCc1ccccc1 | > 100
52 | COc1cccc(-c2nc(-c3cnccn3)n(C3OC(CO)C(O)C3O)n2)c1 (configuration not stated) | > 100

Each compound was assayed on UACC-257 melanoma (assay: inhibition of tumour cell growth, NCI panel, 48 h).

Row | Structure (SMILES) | TGI [µM]
53 | Nc1cnc(Nc2cccc3ccccc23)o1 | > 10
54 | COC(=O)C1=CC(=O)OC1(OO)c1ccc(Br)cc1 (configuration not stated) | > 100
55 | C[Si](C)(C)CNC(=O)OCc1ccccc1 | > 100
56 | COc1cccc(-c2nc(-c3cnccn3)n(C3OC(CO)C(O)C3O)n2)c1 (configuration not stated) | > 100
57 | CC1(C)COC(c2ccccc2-c2ccccc2)=N1 | > 100

These compounds were tested on A498 renal (assay: inhibition of tumour cell growth, NCI panel, 48 h).

Row | Structure (SMILES) | TGI [µM]
58 | Nc1cnc(Nc2cccc3ccccc23)o1 | > 10
59 | C[Si](C)(C)CNC(=O)OCc1ccccc1 | > 100
60 | CC1(C)COC(c2ccccc2-c2ccccc2)=N1 | > 100

What follows are compounds tested on ACHN renal (assay: inhibition of tumour cell growth, NCI panel, 48 h).

Row | Structure (SMILES) | TGI [µM]
61 | Nc1cnc(Nc2cccc3ccccc23)o1 | > 10
62 | COC(=O)C1=CC(=O)OC1(OO)c1ccc(Br)cc1 (configuration not stated) | > 100
63 | C[Si](C)(C)CNC(=O)OCc1ccccc1 | > 100
64 | CC1(C)COC(c2ccccc2-c2ccccc2)=N1 | > 100

The compounds below were run on MALME-3M melanoma (assay: inhibition of tumour cell growth, NCI panel, 48 h).

Row | Structure (SMILES) | TGI [µM]
65 | Nc1cnc(Nc2cccc3ccccc23)o1 | > 10
66 | COC(=O)C1=CC(=O)OC1(OO)c1ccc(Br)cc1 (configuration not stated) | > 100
67 | CC1(C)COC(c2ccccc2-c2ccccc2)=N1 | > 100
